Experimental data from ChEMBL document CHEMBL5465560, “Selectivity Literature for EUbOPEN Chemogenomic Library” (2024).
Blank lines part the entries; values can stand above or below the compound they belong to.

Key:
[1] = biological target: Vascular endothelial growth factor receptor 1 (Homo sapiens) (UniProt P17948); test: Selectivity interaction (Kinase panel (Eurofins)) EUB0001564a FLT1; conditions: at 1 µM
[2] = biological target: Dual specificity protein kinase CLK1 (Homo sapiens, UniProt P49759); test: Selectivity interaction (Kinase panel (DSF assay)) EUB0001489b CLK1
[3] = biological target: Ribosomal protein S6 kinase beta-1 (Homo sapiens, UniProt P23443); test: Selectivity interaction (KinomeScan (DiscoverX)) EUB0001079a RPS6KB1; conditions: at 1 µM
[4] = biological target: Serine/threonine-protein kinase 26 (Homo sapiens, UniProt Q9P289); test: Selectivity interaction (KinomeScan (DiscoverX)) EUB0001079a STK26; conditions: at 1 µM
[5] = biological target: AP2-associated protein kinase 1 (Homo sapiens, UniProt Q2M2I8); test: Selectivity interaction (KinomeScan (DiscoverX)) EUB0001079a AAK1; conditions: at 1 µM
[6] = biological target: T1, Dual specificity mitogen-activated protein kinase kinase 7 (Homo sapiens) (UniProt O14733); test: Selectivity interaction (KinomeScan (DiscoverX)) EUB0000607a MAP2K7; conditions: at 10 µM
T1 sequence (whole entry): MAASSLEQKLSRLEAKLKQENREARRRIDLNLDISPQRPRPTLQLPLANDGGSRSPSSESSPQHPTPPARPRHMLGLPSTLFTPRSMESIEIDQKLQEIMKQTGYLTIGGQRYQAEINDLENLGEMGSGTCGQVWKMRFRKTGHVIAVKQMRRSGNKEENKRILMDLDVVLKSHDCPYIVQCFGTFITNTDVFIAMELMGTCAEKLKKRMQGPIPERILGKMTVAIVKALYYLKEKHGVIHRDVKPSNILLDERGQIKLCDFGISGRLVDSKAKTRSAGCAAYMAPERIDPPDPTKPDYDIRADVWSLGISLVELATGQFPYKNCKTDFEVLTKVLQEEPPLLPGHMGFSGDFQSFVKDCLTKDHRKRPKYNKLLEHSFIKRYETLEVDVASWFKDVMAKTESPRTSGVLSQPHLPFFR

[7] = biological target: Serine/threonine-protein kinase MRCK beta (Homo sapiens) (UniProt Q9Y5S2); conditions: at 10 µM
[8] = biological target: T2, Serine/threonine-protein kinase ULK1 (Homo sapiens) (UniProt O75385); test: Selectivity interaction (Kinase panel (KiNativ target engagement assay in Jurkat cells)) EUB0001635a ULK1; format: cell-based; conditions: Selectivity number of off-targets 0.0, Selectivity number of targets 233.0, Source Knowledge https://www.sciencedirect.com/science/article/pii/S2451945619300674?via%3Dihub, at 1 µM
T2 sequence (whole entry): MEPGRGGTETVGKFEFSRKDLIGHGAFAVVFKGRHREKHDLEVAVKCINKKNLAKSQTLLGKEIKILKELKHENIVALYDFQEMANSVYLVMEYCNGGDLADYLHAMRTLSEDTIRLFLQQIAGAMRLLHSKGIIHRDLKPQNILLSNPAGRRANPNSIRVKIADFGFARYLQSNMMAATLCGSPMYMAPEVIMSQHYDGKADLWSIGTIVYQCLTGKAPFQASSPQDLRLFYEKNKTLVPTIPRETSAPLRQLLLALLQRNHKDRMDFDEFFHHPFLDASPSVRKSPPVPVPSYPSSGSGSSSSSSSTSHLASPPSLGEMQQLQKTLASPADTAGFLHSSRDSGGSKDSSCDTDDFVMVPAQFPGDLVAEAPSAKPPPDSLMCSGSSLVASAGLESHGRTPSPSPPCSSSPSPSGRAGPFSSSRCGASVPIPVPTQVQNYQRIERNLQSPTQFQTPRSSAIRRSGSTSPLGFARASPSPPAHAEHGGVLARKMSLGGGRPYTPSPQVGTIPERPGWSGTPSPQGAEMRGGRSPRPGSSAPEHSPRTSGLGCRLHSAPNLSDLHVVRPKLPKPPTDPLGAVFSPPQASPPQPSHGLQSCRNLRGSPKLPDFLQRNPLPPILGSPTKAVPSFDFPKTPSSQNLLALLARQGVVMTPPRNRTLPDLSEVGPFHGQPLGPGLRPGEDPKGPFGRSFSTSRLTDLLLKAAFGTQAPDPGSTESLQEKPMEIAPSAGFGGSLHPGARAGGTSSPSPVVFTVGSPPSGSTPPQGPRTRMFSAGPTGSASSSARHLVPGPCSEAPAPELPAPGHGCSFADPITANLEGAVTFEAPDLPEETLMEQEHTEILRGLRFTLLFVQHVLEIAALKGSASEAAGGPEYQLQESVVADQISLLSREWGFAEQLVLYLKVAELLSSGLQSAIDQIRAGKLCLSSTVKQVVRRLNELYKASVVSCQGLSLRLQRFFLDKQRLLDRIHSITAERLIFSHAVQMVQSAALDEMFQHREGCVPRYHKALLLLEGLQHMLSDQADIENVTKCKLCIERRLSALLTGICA

[9] = biological target: Mitogen-activated protein kinase 6 (Homo sapiens) (UniProt Q16659); test: Selectivity interaction (ActivX KiNativ screen (kinase selectivity in THP-1 cell lysates)) EUB0000639a MAPK6; format: subcellular; conditions: lysate
[10] = biological target: T3, Phosphatidylinositol 5-phosphate 4-kinase type-2 gamma (Homo sapiens) (UniProt Q8TBX8); test: Selectivity interaction (KinomeScan (DiscoverX)) EUB0000092b PIP4K2C; conditions: at 10 µM
T3 sequence (whole entry): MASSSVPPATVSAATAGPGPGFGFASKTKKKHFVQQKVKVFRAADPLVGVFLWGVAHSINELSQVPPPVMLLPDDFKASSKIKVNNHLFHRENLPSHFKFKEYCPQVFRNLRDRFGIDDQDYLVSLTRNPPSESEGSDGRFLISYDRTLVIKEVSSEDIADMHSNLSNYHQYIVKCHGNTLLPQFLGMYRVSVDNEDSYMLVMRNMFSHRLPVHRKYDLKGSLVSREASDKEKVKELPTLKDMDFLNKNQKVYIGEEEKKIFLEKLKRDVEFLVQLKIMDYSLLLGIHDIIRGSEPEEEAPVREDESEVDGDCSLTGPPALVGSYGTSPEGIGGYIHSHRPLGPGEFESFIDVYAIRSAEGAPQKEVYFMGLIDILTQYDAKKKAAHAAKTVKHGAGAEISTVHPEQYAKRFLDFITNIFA

Sequence of Mitogen-activated protein kinase 6 (Homo sapiens) (Q16659 whole entry): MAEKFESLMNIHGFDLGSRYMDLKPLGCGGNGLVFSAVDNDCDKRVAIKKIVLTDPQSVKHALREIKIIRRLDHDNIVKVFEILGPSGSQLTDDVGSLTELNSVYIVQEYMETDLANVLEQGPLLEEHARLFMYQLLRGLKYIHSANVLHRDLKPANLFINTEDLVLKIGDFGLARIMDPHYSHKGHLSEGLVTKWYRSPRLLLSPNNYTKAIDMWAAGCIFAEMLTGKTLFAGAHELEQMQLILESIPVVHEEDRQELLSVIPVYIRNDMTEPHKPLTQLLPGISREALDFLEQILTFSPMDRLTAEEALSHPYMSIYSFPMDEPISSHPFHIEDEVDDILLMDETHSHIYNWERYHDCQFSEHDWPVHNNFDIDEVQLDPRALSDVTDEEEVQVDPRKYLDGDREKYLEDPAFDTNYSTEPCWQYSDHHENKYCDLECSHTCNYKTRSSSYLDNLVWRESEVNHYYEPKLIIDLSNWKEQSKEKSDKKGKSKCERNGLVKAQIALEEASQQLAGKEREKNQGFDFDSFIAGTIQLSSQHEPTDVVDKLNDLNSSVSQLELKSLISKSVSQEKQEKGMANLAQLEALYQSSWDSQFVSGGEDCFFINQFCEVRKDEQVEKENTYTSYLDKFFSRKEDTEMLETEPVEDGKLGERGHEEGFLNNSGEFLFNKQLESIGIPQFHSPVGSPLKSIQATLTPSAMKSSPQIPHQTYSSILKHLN
Sequence of Ribosomal protein S6 kinase beta-1 (P23443 whole entry, looked up): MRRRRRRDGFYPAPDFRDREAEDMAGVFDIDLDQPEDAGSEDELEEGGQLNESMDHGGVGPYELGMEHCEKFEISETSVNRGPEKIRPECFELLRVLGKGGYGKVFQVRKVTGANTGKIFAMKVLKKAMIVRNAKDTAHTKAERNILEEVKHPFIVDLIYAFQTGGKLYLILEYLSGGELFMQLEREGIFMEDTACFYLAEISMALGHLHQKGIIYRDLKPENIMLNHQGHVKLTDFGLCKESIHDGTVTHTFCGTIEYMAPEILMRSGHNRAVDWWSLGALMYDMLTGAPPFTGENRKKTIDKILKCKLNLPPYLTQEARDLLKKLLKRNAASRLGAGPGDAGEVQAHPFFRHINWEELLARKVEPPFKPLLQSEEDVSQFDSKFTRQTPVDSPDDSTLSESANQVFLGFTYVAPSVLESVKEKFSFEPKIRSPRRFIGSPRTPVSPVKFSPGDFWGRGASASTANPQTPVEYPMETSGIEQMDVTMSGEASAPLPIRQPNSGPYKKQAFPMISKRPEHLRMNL
Sequence of Dual specificity protein kinase CLK1 (P49759 whole entry, looked up): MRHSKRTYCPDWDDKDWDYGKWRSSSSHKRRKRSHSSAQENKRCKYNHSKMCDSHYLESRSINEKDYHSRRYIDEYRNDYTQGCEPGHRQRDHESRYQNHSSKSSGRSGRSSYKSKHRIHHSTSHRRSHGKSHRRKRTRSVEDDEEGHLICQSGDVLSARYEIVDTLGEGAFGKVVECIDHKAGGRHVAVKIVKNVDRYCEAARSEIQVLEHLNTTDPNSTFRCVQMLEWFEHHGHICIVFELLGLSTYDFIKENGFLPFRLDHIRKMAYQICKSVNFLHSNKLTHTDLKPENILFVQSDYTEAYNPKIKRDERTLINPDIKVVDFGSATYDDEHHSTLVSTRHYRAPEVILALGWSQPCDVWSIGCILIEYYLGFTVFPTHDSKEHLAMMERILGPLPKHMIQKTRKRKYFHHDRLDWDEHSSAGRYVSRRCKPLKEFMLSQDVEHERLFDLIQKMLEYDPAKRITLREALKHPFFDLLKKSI
Sequence of Serine/threonine-protein kinase MRCK beta (Homo sapiens) (Q9Y5S2 whole entry): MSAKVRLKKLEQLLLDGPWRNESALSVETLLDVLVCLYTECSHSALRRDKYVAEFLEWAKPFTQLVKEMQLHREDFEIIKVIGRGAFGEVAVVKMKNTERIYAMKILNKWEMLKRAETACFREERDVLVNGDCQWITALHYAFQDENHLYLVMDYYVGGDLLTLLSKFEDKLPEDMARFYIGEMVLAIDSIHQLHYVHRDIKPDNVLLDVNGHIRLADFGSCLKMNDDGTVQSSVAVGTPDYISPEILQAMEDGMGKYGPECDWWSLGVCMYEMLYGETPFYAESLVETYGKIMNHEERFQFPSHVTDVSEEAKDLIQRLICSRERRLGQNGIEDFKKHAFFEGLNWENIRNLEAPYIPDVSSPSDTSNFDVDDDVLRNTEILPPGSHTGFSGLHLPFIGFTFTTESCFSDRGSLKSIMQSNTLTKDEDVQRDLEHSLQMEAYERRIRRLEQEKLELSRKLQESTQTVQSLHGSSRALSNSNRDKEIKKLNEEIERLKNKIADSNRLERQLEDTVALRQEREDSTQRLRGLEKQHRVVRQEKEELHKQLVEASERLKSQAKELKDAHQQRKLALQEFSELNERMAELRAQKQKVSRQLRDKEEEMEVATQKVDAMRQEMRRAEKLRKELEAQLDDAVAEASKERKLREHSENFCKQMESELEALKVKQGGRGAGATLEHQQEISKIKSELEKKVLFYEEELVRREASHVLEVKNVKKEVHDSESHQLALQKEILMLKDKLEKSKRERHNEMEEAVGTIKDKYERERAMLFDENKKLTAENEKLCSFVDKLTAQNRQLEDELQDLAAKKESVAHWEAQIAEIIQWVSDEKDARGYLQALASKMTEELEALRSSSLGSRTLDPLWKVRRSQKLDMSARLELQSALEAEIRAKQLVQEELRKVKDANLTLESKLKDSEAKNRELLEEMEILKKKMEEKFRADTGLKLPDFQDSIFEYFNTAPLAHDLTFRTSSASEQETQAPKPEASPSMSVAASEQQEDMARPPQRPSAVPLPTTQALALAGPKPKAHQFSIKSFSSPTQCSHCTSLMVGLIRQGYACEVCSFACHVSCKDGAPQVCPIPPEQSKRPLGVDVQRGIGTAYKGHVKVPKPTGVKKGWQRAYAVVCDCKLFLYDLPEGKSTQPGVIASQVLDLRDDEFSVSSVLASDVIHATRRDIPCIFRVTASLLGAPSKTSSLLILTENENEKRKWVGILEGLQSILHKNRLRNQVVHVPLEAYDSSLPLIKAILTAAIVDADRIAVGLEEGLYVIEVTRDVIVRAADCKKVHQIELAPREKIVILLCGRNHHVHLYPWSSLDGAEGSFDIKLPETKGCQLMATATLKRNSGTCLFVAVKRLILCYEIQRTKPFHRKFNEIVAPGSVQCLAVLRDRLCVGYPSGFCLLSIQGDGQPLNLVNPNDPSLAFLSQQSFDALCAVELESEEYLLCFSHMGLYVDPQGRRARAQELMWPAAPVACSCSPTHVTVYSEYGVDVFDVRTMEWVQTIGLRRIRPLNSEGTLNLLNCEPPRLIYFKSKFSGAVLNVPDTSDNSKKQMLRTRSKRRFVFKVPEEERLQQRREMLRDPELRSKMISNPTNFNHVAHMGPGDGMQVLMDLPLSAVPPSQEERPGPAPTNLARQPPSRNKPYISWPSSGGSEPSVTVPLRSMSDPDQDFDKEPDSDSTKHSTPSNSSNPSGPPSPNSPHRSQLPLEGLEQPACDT
Sequence of AP2-associated protein kinase 1 (Q2M2I8 whole entry, looked up): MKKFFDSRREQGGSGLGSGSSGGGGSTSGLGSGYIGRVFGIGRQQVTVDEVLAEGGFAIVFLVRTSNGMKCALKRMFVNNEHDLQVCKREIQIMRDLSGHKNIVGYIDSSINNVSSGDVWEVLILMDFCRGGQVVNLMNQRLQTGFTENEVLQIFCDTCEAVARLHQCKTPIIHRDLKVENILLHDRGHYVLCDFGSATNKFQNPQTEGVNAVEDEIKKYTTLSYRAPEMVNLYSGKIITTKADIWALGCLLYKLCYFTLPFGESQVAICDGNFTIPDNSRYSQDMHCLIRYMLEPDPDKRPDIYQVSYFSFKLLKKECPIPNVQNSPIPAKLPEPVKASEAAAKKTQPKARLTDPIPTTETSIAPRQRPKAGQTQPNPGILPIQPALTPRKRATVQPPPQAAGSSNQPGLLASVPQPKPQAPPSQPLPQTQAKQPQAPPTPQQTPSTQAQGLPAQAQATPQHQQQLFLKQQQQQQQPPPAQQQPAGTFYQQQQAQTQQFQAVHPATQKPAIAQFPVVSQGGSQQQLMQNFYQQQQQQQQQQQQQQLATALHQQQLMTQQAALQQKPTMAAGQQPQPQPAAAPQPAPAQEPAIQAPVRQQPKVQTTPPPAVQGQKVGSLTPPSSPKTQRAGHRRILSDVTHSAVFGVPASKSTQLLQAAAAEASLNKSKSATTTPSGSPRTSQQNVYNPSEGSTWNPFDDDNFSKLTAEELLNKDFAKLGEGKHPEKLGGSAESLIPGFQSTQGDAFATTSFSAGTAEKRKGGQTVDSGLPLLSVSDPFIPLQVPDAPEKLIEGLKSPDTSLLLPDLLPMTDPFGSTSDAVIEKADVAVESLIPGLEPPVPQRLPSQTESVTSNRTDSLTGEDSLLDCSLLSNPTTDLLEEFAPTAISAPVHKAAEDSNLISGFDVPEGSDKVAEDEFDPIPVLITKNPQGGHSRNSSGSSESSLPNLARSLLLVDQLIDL
Sequence of Serine/threonine-protein kinase 26 (Q9P289 2-416 limits assumed): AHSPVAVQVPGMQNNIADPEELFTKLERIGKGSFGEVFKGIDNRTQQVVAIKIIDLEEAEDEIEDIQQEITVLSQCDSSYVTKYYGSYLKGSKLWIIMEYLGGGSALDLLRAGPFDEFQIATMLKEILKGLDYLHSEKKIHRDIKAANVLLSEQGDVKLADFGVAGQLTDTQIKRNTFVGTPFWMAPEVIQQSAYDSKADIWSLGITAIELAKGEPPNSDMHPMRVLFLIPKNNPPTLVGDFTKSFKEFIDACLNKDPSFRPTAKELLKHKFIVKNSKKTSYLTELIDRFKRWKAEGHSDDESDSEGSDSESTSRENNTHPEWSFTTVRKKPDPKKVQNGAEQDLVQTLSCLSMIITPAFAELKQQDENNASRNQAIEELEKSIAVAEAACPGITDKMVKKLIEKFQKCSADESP

% of inhibition [1]: 56.8%
Compound: CC[C@@H](Nc1c(C#N)c(-c2ccc(-c3cccc(C)c3F)cc2)nc2cnccc12)C(=O)O [BAY-091]

dTM [2]: 2.9 K
Compound: CN1CCN(C(=O)c2ccc3cc2OCCOCCNc2ccn4ncc-3c4n2)CC1

Compound: Nc1cnc(N2CCc3cc(S(=O)(=O)Nc4c(F)cc(Cl)cc4F)cc(N4CCCC4=O)c32)nc1 [TP-020n]
% of control [3]: 83%
% of control [4]: 83%
% of control [5]: 100%

Compound: CNC(=O)Nc1ccc(-c2nc(N3CC4CCC(C3)O4)c3cnn(C4CCC5(CC4)OCCO5)c3n2)cc1
% of control [6]: 100%

Compound: COCC(=O)NC/C=C/c1ccc2ncnc(Nc3ccc(Oc4ccc(C)nc4)c(C)c3)c2c1 [CP-724714]
% of control [7]: 96%

Compound: C=CC(=O)Nc1ccc(C(=O)Nc2[nH]nc3c2CN(C(=O)N[C@H](CN(C)C)c2ccccc2)C3(C)C)cc1
% of engagement [8]: 5.7%

% of inhibition ([9]; at 0.01 µM): -20%
% of inhibition ([9]; at 0.04 µM): -5.5%
% of inhibition ([9]; at 0.2 µM): -11.8%
% of inhibition ([9]; at 1 µM): -1.3%
% of inhibition ([9]; at 5 µM): -1%
Compound: CC[C@@H]1[C@H](F)C(=O)N[C@@H]1COc1nccc2cc(C(N)=O)c(OC)cc12 [ZIMLOVISERTIB]

Compound: CCC(=O)N1CCN(c2ccc(-n3c(=O)ccc4cnc5ccc(-c6cnc7ccccc7c6)cc5c43)cc2C(F)(F)F)CC1
% of control [10]: 58%
